Laboratory results taken from US4950647A, “T cell immunopotentiator” (Nucleic Acid Research Institute, priority 1988, dated 1990).

Columns and labels:
[1] = system: human lymphocytes (peripheral blood mononuclear cells); experiment: Concanavalin A (Con A) induced lymphocyte proliferation; format: cell-based; parameters: 3H-thymidine incorporation in Con A-stimulated cultures: unit not given here
Description: (§1) Peripheral blood mononuclear cells were isolated from heparinized peripheral blood of normal healthy donors as described in Sharma, B. and S. Gupta, "Antigen-specific primary cytotoxic T lymphocyte response in acquired immune deficiency syndrome (AIDS) and AIDS related complex", Clin. Exp. Immunol., 62:296, 1985. Briefly, blood was diluted 1:1 with Hanks balanced salt solution (HBSS). Peripheral blood mononuclear cells were separated on a Ficoll-Hypaque gradient. The peripheral blood mononuclear cells recovered from the interface were washed three times with HBSS and resuspended in RPMI-1640 containing 100 U/ml penicillin, 100 μg/ml streptomycin 2mM L-glutamine (GIBCO, Grand Island, N.Y.), and 10% heat-inactivated pooled A serum (Irvine Scientific, Irvine, Calif.), hereafter referred as complete medium (CM).
The ability of the compound 6-amino-(2-deoxy-α-D-erythropentofuranosyl)-imidazo[4,5,-C]pyridin-4-one to modulate lymphocyte response to plant mitogens was determined by the modified procedure of Sharma, B., O. Kohashi, M. R. Mickey, and P. T. Terasaki, "Effect of water soluble adjuvants on in vitro lymphocyte immunization", Cancer Res. 35:666, 1975. Peripheral blood mononuclear cells were cultured for 72-96 hr with phytohemagglutinin (Difco, Detroit, Mich.), Concanavalin A (Calbiochem, Calif.) or Pokeweed mitogen (GIBCO, Grand Island, N.Y.) in the presence and absence of 6-amino-(2-deoxy-α-D-erythro-pentofuranosyl)-imidazo[4,5,-C]pyridin- 4-one. The culture were set up in quadruplicate and pulsed with [^3 H]-thymidine for 16 hr and the [^3 H] thymidine incorporation was determined.
Peripheral blood mononuclear cells were cultured with different concentrations of Concanavalin A in the presence and absence of 6-amino-(2-deoxy-α-D-erythro-pentofuranosyl)-imidazo[4,5,-C]pyridin- 4-one. Lymphocyte proliferation was determined by ^3 H-thymidine incorporation.

[2] = system: human mixed lymphocyte culture; experiment: Mixed lymphocyte response / culture (alloantigens); format: cell-based
Description: as §1
Peripheral blood mononuclear cells (1×10^5 /0.2 ml/well) from donor-A were cultured together with different numbers of peripheral blood mononuclear cells ([…]) of peripheral blood mononuclear cells from the other donor for 96 hr as previously described above for the lymphocyte response to plant mitogens. Cultures were pulsed with [^3 H]-thymidinefor additional 16 hrs.

[3] = system: T lymphocytes (peripheral blood mononuclear cells); experiment: Cyclosporin A induced suppression of lymphocyte response to Concanavalin A, and its restoration; format: cell-based, human; conditions: FIG. 4; Con A
Description: Briefly, blood was diluted 1:1 with Hanks balanced salt solution (HBSS). Peripheral blood mononuclear cells were separated on a Ficoll-Hypaque gradient.
Cultures were pulsed for 16 hr and [^3 H]-thymidine incorporation was measured.
Peripheral blood mononuclear cells from normal donors were incubated with T cell mitogens in the presence and absence of this compound and then [^3 H-thymidine incorporation was measured.
Lymphocytes proliferation was determined by ^3 H-thymidine incorporation.

[4] = system: B target cells (PHA induced lymphoblasts of donor B); experiment: Generation of antigen-specific primary cytotoxic T lymphocytes, 51Cr release, target B; format: cell-based, human; conditions: for % Specific Cytotoxicity: Exp. 1, A + Bx, no compound 7
Description: Peripheral blood mononuclear cells from healthy donor A and C were cultured together with irradiated (3000 R) peripheral blood mononuclear cells from donor B and irradiated cells (SX) from B cells of the SB cell line, respectively, for five days. At the end of the incubation period, the cells were washed and resuspended in medium and then their cytotoxic activity was determined against the specific lymphoblast target cell B or S according to the procedure of Sharma and Gupta noted above.

[5] = Revankar et al. 1984; cited from earlier work
[6] = Revankar et al. 1984; cited from earlier work; remark: listed apart in the source
[7] = donor 1, Con A 0.25 mg/0.2 ml, compound (0.05)
[8] = donor 1, Con A 1.0 mg/0.2 ml, compound (0.006)
[9] = donor 1, Con A 4.0 mg/0.2 ml, compound (0.038)
[10] = donor 2, Con A 0.13 mg/0.2 ml, compound (0.2)
[11] = donor 2, Con A 0.13 mg/0.2 ml, compound (0.4)
[12] = donor 2, Con A 0.25 mg/0.2 ml, compound (0.2)
[13] = donor 2, Con A 0.25 mg/0.2 ml, compound (0.4)
[14] = donor 2, Con A 2.0 mg/0.2 ml, compound (0.025)
[15] = donor 3, Con A 0.13 mg/0.2 ml, compound (0.0125)
[16] = donor 3, Con A 0.13 mg/0.2 ml, compound (0.4)
[17] = donor 3, Con A 0.25 mg/0.2 ml, compound (0.05)
[18] = donor 3, Con A 0.25 mg/0.2 ml, compound (0.4)
[19] = donor 3, Con A 2.0 mg/0.2 ml, compound (0.05)
[20] = donor 3, Con A 2.0 mg/0.2 ml, compound (O.4)
[21] = donor 4, Con A 0.05 mg/0.2 ml, compound (0.025)
[22] = donor 4, Con A 0.13 mg/0.2 ml, compound (0.05)
[23] = donor 4, Con A 0.25 mg/0.2 ml, compound (0.05)
[24] = donor 5, Con A 0.5 mg/0.2 ml, compound (0.05)
[25] = donor 5, Con A 2.0 mg/0.2 ml, compound (0.025)

Nc1cc2c(ncn2[C@@H]2C[C@H](O)[C@@H](CO)O2)c(O)n1 [Test Compound, 6-amino-1-(2-deoxy-α-D-erythro-pentofuranosyl)imidazo[4,5-C]-pyridin-4-one]
increase in lymphocyte response to Concanavalin A [1]: marked increase
mean increase of Con A response ([1]; Table IV): 109%
suppressive effect on Con A response ([1]; Table IV): slight suppressive effect in only one case
3H-thymidine incorporation in Con A-stimulated cultures [1, 7]: 49279 ± 2732
% Potentiation [1, 7]: 32%
3H-thymidine incorporation in Con A-stimulated cultures [1, 8]: 71105 ± 4015
% Potentiation [1, 8]: 34%
3H-thymidine incorporation in Con A-stimulated cultures [1, 9]: 99322 ± 8655
% Potentiation [1, 9]: 43%
3H-thymidine incorporation in Con A-stimulated cultures [1, 10]: 18607 ± 2157
% Potentiation [1, 10]: 318%
3H-thymidine incorporation in Con A-stimulated cultures [1, 11]: 31068 ± 2678
% Potentiation [1, 11]: 599%
3H-thymidine incorporation in Con A-stimulated cultures [1, 12]: 44958 ± 2248
% Potentiation [1, 12]: 203%
3H-thymidine incorporation in Con A-stimulated cultures [1, 13]: 48354 ± 3336
% Potentiation [1, 13]: 226%
3H-thymidine incorporation in Con A-stimulated cultures [1, 14]: 162317 ± 10872
% Potentiation [1, 14]: 29%
3H-thymidine incorporation in Con A-stimulated cultures [1, 15]: 29693 ± 4998
% Potentiation [1, 15]: 50%
3H-thymidine incorporation in Con A-stimulated cultures [1, 16]: 39902 ± 2918
% Potentiation [1, 16]: 102%
3H-thymidine incorporation in Con A-stimulated cultures [1, 17]: 57780 ± 9762
% Potentiation [1, 17]: 36%
3H-thymidine incorporation in Con A-stimulated cultures [1, 18]: 51010 ± 3861
% Potentiation [1, 18]: 20%
3H-thymidine incorporation in Con A-stimulated cultures [1, 19]: 122692 ± 3643
% Potentiation [1, 19]: 12%
3H-thymidine incorporation in Con A-stimulated cultures [1, 20]: 98613 ± 4737
% Potentiation [1, 20]: -11%
3H-thymidine incorporation in Con A-stimulated cultures [1, 21]: 43957 ± 6053
% Potentiation [1, 21]: 54%
3H-thymidine incorporation in Con A-stimulated cultures [1, 22]: 44234 ± 5027
% Potentiation [1, 22]: 110%
3H-thymidine incorporation in Con A-stimulated cultures [1, 23]: 39059 ± 5098
% Potentiation [1, 23]: 49%
3H-thymidine incorporation in Con A-stimulated cultures [1, 24]: 71303 ± 3633
% Potentiation [1, 24]: 33%
3H-thymidine incorporation in Con A-stimulated cultures [1, 25]: 75046 ± 1495
% Potentiation [1, 25]: 16%
effect on mixed lymphocyte response ([2]; 2-way mixed lymphocyte culture): markedly increased the mixed lymphocyte response in a dose dependent manner in most of the cases
maximal increase of mixed lymphocyte response ([2]; 2-way mixed lymphocyte culture): 91%
3H-thymidine incorporation in MLC ([2]; A + B (0.5 × 10^5), 0.0125 mM): 14814 ± 929 CPM
3H-thymidine incorporation in MLC ([2]; A + B (0.5 × 10^5), 0.025 mM): 18978 ± 1048 CPM
3H-thymidine incorporation in MLC ([2]; A + B (0.5 × 10^5), 0.05 mM): 21399 ± 1759 CPM
3H-thymidine incorporation in MLC ([2]; A + B (0.5 × 10^5), 0.2 mM): 22448 ± 1609 CPM
3H-thymidine incorporation in MLC ([2]; A + B (0.5 × 10^5), 0.4 mM): 21593 ± 3007 CPM
3H-thymidine incorporation in MLC ([2]; A + B (1 × 10^5), 0.0125 mM): 26858 ± 2392 CPM
3H-thymidine incorporation in MLC ([2]; A + B (1 × 10^5), 0.025 mM): 21794 ± 7136 CPM
3H-thymidine incorporation in MLC ([2]; A + B (1 × 10^5), 0.05 mM): 33532 ± 1732 CPM
3H-thymidine incorporation in MLC ([2]; A + B (1 × 10^5), 0.2 mM): 30790 ± 1912 CPM
3H-thymidine incorporation in MLC ([2]; A + B (1 × 10^5), 0.4 mM): 30261 ± 1835 CPM
3H-thymidine incorporation in MLC ([2]; A + B (2 × 10^5), 0.0125 mM): 18608 ± 2511 CPM
3H-thymidine incorporation in MLC ([2]; A + B (2 × 10^5), 0.025 mM): 23548 ± 4439 CPM
3H-thymidine incorporation in MLC ([2]; A + B (2 × 10^5), 0.05 mM): 25299 ± 4479 CPM
3H-thymidine incorporation in MLC ([2]; A + B (2 × 10^5), 0.2 mM): 29209 ± 2804 CPM
3H-thymidine incorporation in MLC ([2]; A + B (2 × 10^5), 0.4 mM): 27940 ± 3679 CPM
3H-thymidine incorporation in MLC ([2]; B + A (0.5 × 10^5), 0.0125 mM): 17045 ± 982 CPM
3H-thymidine incorporation in MLC ([2]; B + A (0.5 × 10^5), 0.025 mM): 19538 ± 3053 CPM
3H-thymidine incorporation in MLC ([2]; B + A (0.5 × 10^5), 0.05 mM): 20799 ± 1068 CPM
3H-thymidine incorporation in MLC ([2]; B + A (0.5 × 10^5), 0.2 mM): 19346 ± 20799 CPM
3H-thymidine incorporation in MLC ([2]; B + A (0.5 × 10^5), 0.4 mM): 13779 ± 3043 CPM
3H-thymidine incorporation in MLC ([2]; B + A (2 × 10^5), 0.0125 mM): 18538 ± 1601 CPM
3H-thymidine incorporation in MLC ([2]; B + A (2 × 10^5), 0.025 mM): 22129 ± 3893 CPM
3H-thymidine incorporation in MLC ([2]; B + A (2 × 10^5), 0.05 mM): 24362 ± 2936 CPM
3H-thymidine incorporation in MLC ([2]; B + A (2 × 10^5), 0.2 mM): 27737 ± 2105 CPM
3H-thymidine incorporation in MLC ([2]; B + A (2 × 10^5), 0.4 mM): 28986 ± 1448 CPM
reversal of Cyclosporin A mediated suppression [3]: completely reversed
% Specific Cytotoxicity ([4]; compound (0.05)): 9%
% Specific Cytotoxicity ([4]; compound (0.1)): 22%
% Specific Cytotoxicity ([4]; compound (0.2)): 26%
cytotoxic T lymphocyte activity ([4]; specific fresh phytohemagglutinin induced lymphoblasts): increased
in vitro antiviral activity [5]: limited in vitro antiviral activity
antitumor activity [6]: devoid of any useful antitumor activity
